From patent US20240016795A1, “BROMODOMAIN INHIBITORS FOR ANDROGEN RECEPTOR-DRIVEN CANCERS” (FORMA Therapeutics, Inc., priority 2020, published 2024) come the findings set out here.

In one data set the test system is MDA-MB-453. The experiment in a line: 10-day CellTiter-Glo antiproliferative assay, MDA-MB-453. To be noted: Homo sapiens, MDA-MB-453, 240 h; 10-day exposure, CellTiter-Glo; AR High, ER −, Her2 +/−; read-out: IC50 (μM), MDA-MB-453. The data set is classed as cell-based. As to the method: (§1) Breast cell lines were cultured according to the distributor's recommendations. The following day, cells were exposed to compounds up to 10 days. Cell viability was assessed using a CellTiter-Glo® assay (Promega) at the end of the incubation period. The growth inhibitory effect was assessed by the concentration inhibiting growth by 50% using a nonlinear regression equation and a variable slope (Graphpad Prism). The mRNA expression levels for the androgen receptor (HUGO: AR) was determined from the DepMap Portal database (release 19Q2).
(In general: ATP-based viability assays read luminescence as a measure of living cells.)

The next data set deals with CAMA1. The experiment in a line: 10-day CellTiter-Glo antiproliferative assay, CAMA1. Format: cell-based. To be noted: Homo sapiens, CAMA-1, 240 h, 10-day exposure, AR High, ER +, Her2 −. How it is done:
as §1

For another data set, the system named is HCC1500. Kind of data set: 10-day CellTiter-Glo antiproliferative assay, HCC1500. To be noted: HCC1500, 240 h, 10-day exposure, AR High, ER +, Her2 −. The data set is classed as cell-based. How it is done: as §1
In another data set the test system is HCC1187. The experiment in a line: 10-day CellTiter-Glo antiproliferative assay, HCC1187. The data set is classed as cell-based. The conditions noted are these: Homo sapiens, HCC1187, 240 h, 10-day exposure, AR High, ER −, Her2 −. As to the method: as §1
In a further data set the test system is BT549. The experiment in a line: 10-day CellTiter-Glo antiproliferative assay, BT549. The data set is classed as cell-based. To be noted: Homo sapiens, BT-549, 240 h, 10-day exposure, AR Low, ER −, Her2 −. As to the method: as §1
The subject of the next data set is CAL148. The experiment in a line: 10-day CellTiter-Glo antiproliferative assay, CAL148. The data set is classed as cell-based. The conditions noted are these: Homo sapiens, CAL-148, 240 h, 10-day exposure, AR Low, ER −, Her2 −. How it is done: as §1
The subject of the next data set is MFM223. Kind of data set: 10-day CellTiter-Glo antiproliferative assay, MFM223. The data set is classed as cell-based. To be noted: Homo sapiens, MFM-223, 240 h, 10-day exposure, AR Low, ER −, Her2 −. How it is done: as §1
The test system of another data set is MDA-MB-231. Kind of data set: 10-day CellTiter-Glo antiproliferative assay, MDA-MB-231. The data set is classed as cell-based. The conditions noted are these: Homo sapiens, MDA-MB-231, 240 h, 10-day exposure, AR Low, ER −, Her2 −. As to the method:
as §1

A further data set concerns VCaP. Kind of data set: 10-day prostate cancer cell proliferation assay, VCaP. Format: cell-based. How it is done:
(§2) Prostate cell lines were obtained from ATCC or DSMZ and cultured according to the distributor's recommendations. Prostate cancer cells were plated and incubated overnight. […] Cell viability was assessed using a CellTiter-Glo® assay (Promega) after 10 days drug exposure. The growth inhibitory effect was assessed by the concentration inhibiting growth by 50% using a nonlinear regression equation and a variable slope (Graphpad Prism).

The next data set deals with 22Rv1. The experiment in a line: 10-day prostate cancer cell proliferation assay, 22Rv1. The data set is classed as cell-based. As to the method:
as §2

The subject of data set [1] is AR-negative prostate cancer cell lines DU145 and PC-3. The experiment in a line: 10-day proliferation assay, AR-negative prostate cancer cell lines. The data set is classed as cell-based. To be noted: 10-day assay. How it is done: Two AR-negative prostate cancer cell lines DU145 and PC-3 were also evaluated.
as §2

Data set [2] relates to TMPRSS2. The experiment in a line: Taqman gene expression in AR-positive breast cancer cells, TMPRSS2. The data set is classed as cell-based. To be noted: 24 hours, read-out: IC50, TMPRSS2 mRNA. As to the method:
(§3) AR-positive breast cancer cells were exposed to increasing concentrations of compounds for 24 hours. RNA was extracted and gene expression measured using Taqman® assays for TMPRSS2 and XBP1.
In general terms: Quantitative PCR measures a nucleic acid by following its amplification.

Another data set concerns XBP1. Kind of data set: Taqman gene expression in AR-positive breast cancer cells, XBP1. Format: cell-based. The conditions noted are these: 24 hours, read-out: IC50, XBP1 mRNA. As to the method:
as §3

Another data set has as its system KLK3. The experiment in a line: qPCR gene expression in AR-v7+ prostate cancer cells, KLK3. Format: cell-based. To be noted: 24 h. How it is done:
(§4) AR-v7+ prostate cancer cells were exposed to compounds 1, 2, 3, or 4 for 24 h. RNA was extracted and gene expression was measured by qPCR using Taqman® primer-probes. GAPDH was used as a housekeeping gene.

Data set [3] deals with TMPRSS2. Kind of data set: qPCR gene expression in AR-v7+ prostate cancer cells, TMPRSS2. Format: cell-based. To be noted: 24 h. As to the method:
as §4

For the next data set, the system named is MYC. Kind of data set: qPCR gene expression in AR-v7+ prostate cancer cells, MYC. Format: cell-based. The conditions noted are these: 24 h. As to the method:
as §4

For another data set, the system named is AR. The experiment in a line: AR protein level by western blot in prostate cancer cells. Format: cell-based. To be noted: androgen-independent and androgen-dependent prostate cancer cell lines, western blot.
For the next data set, the system named is AR-v7. The experiment in a line: AR-v7 protein level by western blot in prostate cancer cells. The data set is classed as cell-based. To be noted: androgen-independent (AR-v7+) prostate cancer cells, western blot. For orientation: A western blot detects proteins with antibodies after separation by electrophoresis.
A further data set relates to LNCaP. The experiment in a line: 10-day prostate cancer cell proliferation assay, LNCaP. Format: cell-based. To be noted: 10-day assay. How it is done: as §2
In the next data set the test system is PC-3. Kind of data set: 10-day prostate cancer cell proliferation assay, PC-3. Format: cell-based. The conditions noted are these: 10-day assay. As to the method: as §2
In the next data set the test system is DU 145. Kind of data set: 10-day prostate cancer cell proliferation assay, DU 145. The data set is classed as cell-based. To be noted: 10-day assay. As to the method:
as §2

The test system of data set [4] is patient-derived xenograft (PDX) model of AR+ prostate cancer sensitive to enzalutamide. The experiment in a line: Patient-derived xenograft of prostate cancer sensitive to enzalutamide. The data set is classed as in vivo, NOG mice. To be noted: Compound 1 40 mg/kg/day, enzalutamide 20 mg/kg/day. How it is done: The antitumor activity was determined based by tumor volume during the course of the study.
Male NOG mice (6-8 weeks of age) were implanted with tumor fragments. When tumors reached an average tumor volume of 150-200 mm^3 animals were randomized into different cohort groups and dosing initiated on the same day (Day 0). Animals were weighed twice weekly.
[…] 11.

Data set [5] relates to patient-derived xenograft model of prostate cancer resistant to enzalutamide. The experiment in a line: Patient-derived xenograft of prostate cancer resistant to enzalutamide. Format: in vivo, NOG mice. To be noted: enzalutamide arm. As to the method: Male NOG mice (6-8 weeks of age) were implanted with prostate PDX tumor fragments. When tumors reached an average tumor volume of 100-300 mm^3 animals were randomized into different cohort groups and dosing initiated on the same day (Day 0). […] Animals were weighed twice weekly. Tumors were measured twice weekly. The maximum tumor volume of control animals was 1500 mm^3.

A further data set is described as follows: Dynamic vapor sorption. Format: physicochemical. To be noted: relative humidity of up to 80%. An excerpt: Dynamic Vapor Sorption (DVS) data were collected with a SMS DVS Intrinsic from Surface Measurement Systems.
The nature of a further data set: Solid form stability. The data set is classed as physicochemical. The conditions noted are these: temperatures up to 40° C. and relative humidity of up to 75%.

As for `COC(=O)N1c2ccc3c(nc([C@H](O)c4ccccc4)n3[C@@H]3CCC[C@@H](C(=O)O)C3)c2CC[C@@H]1C` [Compound 2, (1R,3R)-3-((S)-2-((R)-hydroxy(phenyl)methyl)-6-(methoxycarbonyl)-7-methyl-6,7,8,9-tetrahydro-3H-imidazo[4,5-f]quinolin-3-yl)cyclohexane-1-carboxylic acid], the IC50 in the data set on MDA-MB-453 was 0.2 to 0.5 µM; in the data set with CAMA1 it was less than 0.2 µM; in the data set with HCC1500, 0.5 to 1 µM; in the data set with HCC1187, 0.2 to 0.5 µM; in the data set on BT549, more than 1 µM; with CAL148, more than 1 µM. For the same compound, the IC50 was more than 1 µM in the data set on MFM223; more than 1 µM in the data set with MDA-MB-231; more than 1000 nM in the data set on VCaP (Homo sapiens, VCaP, 240 h, 10 days exposure, WT, AR amplification, androgen-dependent); 500 to 1000 nM in the data set on 22Rv1 (Homo sapiens, 22Rv1, 240 h, 10 days exposure, H857Y/H857Y, AR v7+, androgen-independent, read-out: IC50, 22Rv1); more than 500 nM in the data set with TMPRSS2 [2]; less than 100 nM with XBP1. In addition, the results for the IC50 in the data set on KLK3, with TMPRSS2 [3] and in the data set with MYC were 50 to 100 nM, 50 to 100 nM and more than 100 nM, respectively. The “antiproliferative effect, AR-negative cell lines” value in [1] was “inactive”. In the data set on AR, the AR protein level entry was “reduction of both full length and variant forms of the AR”. The AR-v7 protein level entry in the data set with AR-v7 was “reduction of both full length and variant forms of the AR including AR-v7”.
For `COC(=O)N1c2ccc3c(nc([C@H](O)c4cc(F)ccc4OC(F)F)n3[C@@H]3CCC[C@@H](C(=O)O)C3)c2CC[C@@H]1C` [Compound 3, (1R,3R)-3-((S)-2-((R)-(2-(difluoromethoxy)-5-fluorophenyl)(hydroxy)methyl)-6-(methoxycarbonyl)-7-methyl-6,7,8,9-tetrahydro-3H-imidazo[4,5-f]quinolin-3-yl)cyclohexane-1-carboxylic acid], the IC50 lay in the range of 10 to 50 nM in the data set on KLK3, 10 to 50 nM with TMPRSS2 [3] and 50 to 100 nM with MYC.
Consider `CNC(=O)c1ccc(N2C(=S)N(c3ccc(C#N)c(C(F)(F)F)c3)C(=O)C2(C)C)cc1F` [Enzalutamide, reference compound], for which, in the data set on LNCaP, the “anti-proliferative effect (IC50), LnCaP” value is “active”. Moreover, the “anti-proliferative effect (IC50), VCaP” value with VCaP (10-day assay) is reported as “active”. The “anti-proliferative effect (IC50), 22Rv1” value with 22Rv1 (10-day assay) was “inactive”. Also, in the data set on PC-3, the “anti-proliferative effect, PC3” value was “inactive”. In addition, in the data set on DU 145, the “anti-proliferative effect, DU145” value is “inactive”. For the same compound, in data set [4] (four days), the “AR target gene SPDEF expression in tumor” value is “did not” and the H3K27Ac in tumor entry was “did not modulate H3K27Ac”. Further, the “TGI at the end of study” value in [4] (start of dosing to day 59) was “comparable”. This compound displayed a TGI in data set [5] of 21%.
In turn, `COC(=O)N1c2ccc3c(nc([C@H](O)c4cc(F)ccc4OC)n3[C@@H]3CCC[C@@H](C(=O)O)C3)c2CC[C@@H]1C.Cl` [type A hydrochloric acid addition salt, (1R,3R)-3-[(7S)-2-[(R)-(5-fluoro-2-methoxyphenyl)(hydroxy)methyl]-6-(methoxycarbonyl)-7-methyl-3H,6H,7H,8H,9H-imidazo[4,5-f]quinolin-3-yl]cyclohexane-1-carboxylic acid hydrochloride] showed a water uptake in “Dynamic vapor sorption” of 6.3%. Further, in the data set “Solid form stability”, the solid form stability result is “stable for at least two weeks”.

The term IC50 denotes the concentration that gives 50% inhibition.
